In brackets after ≈: the same amount, converted by molar mass.
What was measured:
[1] = Oral bioavailability in Sprague-Dawley rat at 2 mg/kg; type: ADME, organism-based; details: in vivo
[2] = AUC in Balb/c mouse at 30 mg/kg, po; type: ADME, organism-based; details: in vivo
[3] = molecular target: Voltage-gated inwardly rectifying potassium channel KCNH2 (Homo sapiens, UniProt Q12809); test: Inhibition of hERG; type: toxicity
[4] = AUClast in Sprague-Dawley rat at 2 mg/kg, po and 1 mg/kg, iv; type: ADME, organism-based; details: in vivo
[5] = Cmax in ICR mouse at 2 mg/kg, po and 1 mg/kg, iv; type: ADME, organism-based; details: in vivo
NCI-N87 = test: Antiproliferative activity against human NCI-N87 cells assessed as chemiluminescence measured after 4 days incubation by Celltiter Glo assay; details: NCI-N87, 96 h
[6] = Cmax in Balb/c mouse at 30 mg/kg, po; type: ADME, organism-based; details: in vivo
NUGC-3 = test: Antiproliferative activity against human NUGC-3 cells assessed as chemiluminescence measured after 4 days incubation by Celltiter Glo assay; details: NUGC-3, 96 h
[7] = Half life in Cynomolgus monkey at 2 mg/kg, po and 1 mg/kg, iv; type: ADME, organism-based, Macaca fascicularis; details: in vivo
Cytochrome P450 3A4 [8] = molecular target: T1, Cytochrome P450 3A4 (Homo sapiens, UniProt P08684); test: Inhibition of CYP3A4 (unknown origin) assessed as reduction in midazolam metabolism; type: ADME
[9] = Toxicity in nude Balc/c mouse xenografted with human OVCAR-3 cells assessed as change in body weight at 10 to 30 mg/kg, po measured after 21 days; type: organism-based; details: in vivo, 504 h, dose 10-30 mg/kg, time 21 day
[10] = Half life in dog liver microsomes; type: ADME, Canis lupus familiaris, Microsome
[11] = Oral bioavailability in ICR mouse at 2 mg/kg; type: ADME, organism-based; details: in vivo
[12] = Cmax in Cynomolgus monkey at 2 mg/kg, po and 1 mg/kg, iv; type: ADME, organism-based, Macaca fascicularis; details: in vivo
[13] = Half life in Balb/c mouse at 10 mg/kg, po; type: ADME, organism-based; details: in vivo
[14] = Plasma protein binding in rat; type: ADME, cell-free; details: read-out: PPB (converted)
[15] = Solubility in compound in FessIF; type: physicochemical
OVCAR-3 [16] = test: In vivo antiproliferative activity against human OVCAR-3 cells xenografted in po dosed nude Balc/c mouse tumor model assessed as reduction in tumor volume measured after 21 days; type: functional, organism-based; details: dose 10-20 mg/kg, time 21.0 day, TDE = time-dependent effect
BXPC-3 = test: Antiproliferative activity against human BxPC-3 cells assessed as chemiluminescence measured after 4 days incubation by Celltiter Glo assay; details: BXPC-3, 96 h
[17] = Oral bioavailability in Cynomolgus monkey at 2 mg/kg; type: ADME, organism-based, Macaca fascicularis; details: in vivo
[18] = Half life in human liver microsomes; type: ADME, Microsome
[19] = Half life in Beagle dog at 2 mg/kg, po and 1 mg/kg, iv; type: ADME, organism-based, Canis lupus familiaris; details: in vivo
[20] = Plasma protein binding in dog; type: ADME, cell-free, Canis lupus familiaris; details: read-out: PPB (converted)
[21] = Plasma protein binding in human; type: ADME, cell-free; details: read-out: PPB (converted)
[22] = Permeability of compound across basolateral to apical side in human Caco-2 cells; type: ADME, cell-based; details: read-out: permeability
[23] = Plasma protein binding in mouse; type: ADME, cell-free; details: read-out: PPB (converted)
[24] = Oral bioavailability in Beagle dog at 2 mg/kg; type: ADME, organism-based, Canis lupus familiaris; details: in vivo
[25] = Solubility in compound in FassIF; type: physicochemical
[26] = Cmax in Balb/c mouse at 10 mg/kg, po; type: ADME, organism-based; details: in vivo
HCC1954 = test: Antiproliferative activity against human HCC1954 cells assessed as chemiluminescence measured after 4 days incubation by Celltiter Glo assay; details: HCC1954, 96 h
cells = details: Homo sapiens, OVCAR-3, 96 h
Description: Antiproliferative activity against KIF18A siRNA sensitive human OVCAR-3 cells assessed as decrease in nuclei number measured after 4 days incubation by Hoechst 33342 DNA dye based nuclear count assay (NCA)

[27] = Plasma protein binding in monkey; type: ADME, cell-free, Macaca mulatta; details: rhesus monkey, read-out: PPB (converted)
[28] = Solubility in compound in FassGF; type: physicochemical
[29] = Permeability of compound across apical to basolateral side in human Caco-2 cells; type: ADME, cell-based; details: read-out: permeability
Cytochrome P450 3A4 [30] = molecular target: T1, Cytochrome P450 3A4; test: Inhibition of CYP3A4 (unknown origin) assessed as reduction in testosterone metabolism; type: ADME
[31] = Half life in mouse liver microsomes; type: ADME, Microsome
[32] = Half life in Balb/c mouse at 30 mg/kg, po; type: ADME, organism-based; details: in vivo
[33] = Half life in ICR mouse at 2 mg/kg, po and 1 mg/kg, iv; type: ADME, organism-based; details: in vivo
[34] = AUC in ICR mouse at 2 mg/kg, po and 1 mg/kg, iv; type: ADME, organism-based; details: in vivo
[35] = AUC in Cynomolgus monkey at 2 mg/kg, po and 1 mg/kg, iv; type: ADME, organism-based, Macaca fascicularis; details: in vivo
[36] = Half life in monkey liver microsomes; type: ADME, Macaca mulatta, Microsome; details: rhesus monkey
[37] = Cmax in Sprague-Dawley rat at 2 mg/kg, po and 1 mg/kg, iv; type: ADME, organism-based; details: in vivo
[38] = AUC in Balb/c mouse at 10 mg/kg, po; type: ADME, organism-based; details: in vivo
[39] = AUC in Beagle dog at 2 mg/kg, po and 1 mg/kg, iv; type: ADME, organism-based, Canis lupus familiaris; details: in vivo
OVCAR-3 [40] = test: In vivo antiproliferative activity against human OVCAR-3 cells xenografted in nude Balc/c mouse tumor model assessed as tumor growth inhibition at 30 mg/kg, po measured after 21 days; type: functional; details: OVCAR-3, 504 h, time 21 day, read-out: TGI
[41] = Half life in rat liver microsomes; type: ADME, Microsome
[42] = Cmax in Beagle dog at 2 mg/kg, po and 1 mg/kg, iv; type: ADME, organism-based, Canis lupus familiaris; details: in vivo
[43] = Half life in Sprague-Dawley rat at 2 mg/kg, po and 1 mg/kg, iv; type: ADME, organism-based; details: in vivo

T1 sequence (P08684 whole entry): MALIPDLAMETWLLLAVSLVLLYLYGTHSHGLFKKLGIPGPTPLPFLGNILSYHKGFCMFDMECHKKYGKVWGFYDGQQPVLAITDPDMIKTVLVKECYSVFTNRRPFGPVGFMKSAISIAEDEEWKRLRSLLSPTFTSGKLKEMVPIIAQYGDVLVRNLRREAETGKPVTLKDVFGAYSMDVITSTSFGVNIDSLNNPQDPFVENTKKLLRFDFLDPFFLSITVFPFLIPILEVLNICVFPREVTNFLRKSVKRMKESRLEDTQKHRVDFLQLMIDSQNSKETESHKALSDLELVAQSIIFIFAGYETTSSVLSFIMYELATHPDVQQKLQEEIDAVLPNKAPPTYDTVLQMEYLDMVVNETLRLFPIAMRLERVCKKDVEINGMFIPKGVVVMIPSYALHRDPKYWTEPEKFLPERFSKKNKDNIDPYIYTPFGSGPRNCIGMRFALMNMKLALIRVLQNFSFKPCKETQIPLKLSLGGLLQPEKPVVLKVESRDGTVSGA
Sequence of Voltage-gated inwardly rectifying potassium channel KCNH2 (Q12809 whole entry): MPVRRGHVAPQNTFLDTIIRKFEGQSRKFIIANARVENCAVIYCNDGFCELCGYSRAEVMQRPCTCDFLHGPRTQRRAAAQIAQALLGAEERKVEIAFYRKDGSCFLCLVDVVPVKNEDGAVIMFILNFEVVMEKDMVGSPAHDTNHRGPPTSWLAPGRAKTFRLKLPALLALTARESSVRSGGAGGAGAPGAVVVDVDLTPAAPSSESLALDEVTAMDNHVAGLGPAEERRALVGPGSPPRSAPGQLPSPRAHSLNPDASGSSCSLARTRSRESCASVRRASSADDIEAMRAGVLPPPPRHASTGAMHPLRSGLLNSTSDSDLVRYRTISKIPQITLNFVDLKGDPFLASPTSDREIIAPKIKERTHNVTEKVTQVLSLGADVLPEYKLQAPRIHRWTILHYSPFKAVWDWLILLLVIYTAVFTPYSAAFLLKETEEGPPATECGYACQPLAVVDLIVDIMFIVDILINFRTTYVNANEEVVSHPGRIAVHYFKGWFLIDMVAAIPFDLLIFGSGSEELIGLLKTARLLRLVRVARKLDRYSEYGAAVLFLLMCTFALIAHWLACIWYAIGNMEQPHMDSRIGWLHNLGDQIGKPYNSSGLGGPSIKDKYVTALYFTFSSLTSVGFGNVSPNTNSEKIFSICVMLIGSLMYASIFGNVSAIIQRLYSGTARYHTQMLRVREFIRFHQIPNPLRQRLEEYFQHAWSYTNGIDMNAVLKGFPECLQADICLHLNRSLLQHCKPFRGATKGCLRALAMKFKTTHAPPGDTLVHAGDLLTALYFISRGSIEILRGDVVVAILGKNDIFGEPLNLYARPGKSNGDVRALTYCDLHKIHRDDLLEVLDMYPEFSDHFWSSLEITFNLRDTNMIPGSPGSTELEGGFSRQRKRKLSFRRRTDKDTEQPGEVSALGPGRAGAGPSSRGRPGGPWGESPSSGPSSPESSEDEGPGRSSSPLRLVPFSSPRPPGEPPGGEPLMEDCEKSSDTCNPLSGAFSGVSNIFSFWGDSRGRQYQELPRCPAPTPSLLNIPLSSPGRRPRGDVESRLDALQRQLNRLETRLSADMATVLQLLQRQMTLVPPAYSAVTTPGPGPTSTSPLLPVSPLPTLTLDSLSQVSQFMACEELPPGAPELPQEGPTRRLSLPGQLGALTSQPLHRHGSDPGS

bioavailability [1]: 73% | AUC [2]: 54400 ng·h/mL | AUC(0-t) [4]: 5840 ng·h/mL | Cmax [5]: 393 ng/mL | Cmax [6]: 4040 ng/mL | half-life [7]: 4.5 h | IC50 (Cytochrome P450 3A4 [8]): 22.4 µM | half-life [10]: 2.21 h | bioavailability [11]: 68.2% | Cmax [12]: 478 ng/mL | half-life [13]: 3.38 h | fraction unbound [14]: 0.0023 | solubility [15]: 43.6 µM (≈ 24.4 µg/mL) | IC50 (BXPC-3): 8.61 µM | bioavailability [17]: 40.2% | half-life [18]: 0.38 h | half-life [19]: 7.6 h | fraction unbound [20]: 0.0007 | fraction unbound [21]: 0.0004 | Papp B→A [22]: 0.49 ×10⁻⁶ cm/s | fraction unbound [23]: 0.0011 | bioavailability [24]: 76.9% | solubility [25]: 18.5 µM (≈ 10.4 µg/mL) | Cmax [26]: 2160 ng/mL | IC50 (HCC1954): 0.014 µM | EC50 (cells): 0.0647 µM | fraction unbound [27]: 0.0008 | solubility [28]: 3.3 µM (≈ 1.85 µg/mL) | Papp A→B [29]: < 0.01 ×10⁻⁶ cm/s | IC50 (Cytochrome P450 3A4 [30]): 23 µM | half-life [31]: 1.47 h | half-life [32]: 6.38 h | half-life [33]: 4.6 h | AUC [34]: 3340 ng·h/mL | AUC [35]: 2850 ng·h/mL | half-life [36]: 0.203 h | Cmax [37]: 552 ng/mL | AUC [38]: 27700 ng·h/mL | AUC [39]: 11500 ng·h/mL | half-life [41]: 1.03 h | Cmax [42]: 1150 ng/mL | half-life [43]: 2.7 h
Compound: Cc1cc(NC(=O)c2ccc(NS(=O)(=O)CCO)cc2C2=CCC3(CC2)CC3)nc(N2CCC(F)(F)CC2)c1
IC50 [3]: > 30 µM | IC50 (NCI-N87): 8.61 µM | IC50 (NUGC-3): 0.016 µM | Activity [9]: Non-Toxic | Activity (OVCAR-3 [16]): Tde | inhibition in vivo at 30 mg/kg (OVCAR-3 [40]): 113%
